Assay results published in patent publication US20240239786A1, “COMPOSITIONS AND METHODS FOR THE TREATMENT AND PREVENTION OF CANCER” (Yale University, priority 2021, published 2024).

Tests used:
[1] = system: HR repair; test: HR reporter assay in SKOV3-DR-GFP cells; format: cell-based; settings: Homo sapiens, SK-OV-3, I-SceI-induced DSB, 48 hr, read-out: IC50 for inhibiting HR repair
Text: Cells were transfected with the ISceI-expressing plasmid and then treated various concentrations of DB4 for 48 hr. Cells were harvested, stained with 7-AAD, and analyzed by flow cytometry for GFP-positive cells indicative of HR repair activity. […] Cells were transfected with the ISceI-expressing plasmid and treated with various concentrations of DB4. Cells were harvested, stained with 7-AAD, and stained, and analyzed by flow cytometry for GFP-positive cells indicative of NHEJ activity. Data are means±SD (N=3). *, p<0.05; **, p<0.01, compared with the 0 μM control of ISceI-transected cells. […] Cells were also scored for nuclei containing equal or more than 10 distinct Rad51 foci to determine the percentage of cells positive for Rad51 foci. […] Protein was assessed by western blot analysis for the levels of γH2AX, p-H1, cyclin A2, p-CDK1/2, and HSC70. […] The band density of γH2AX indicative of DSBs was quantified by densitometry. […]
The ability of DB4 to inhibit endonuclease-induced DSB repair of reporter genes in SKOV3 cells was evaluated. […]
SKOV3-DR-GFP cells were established as described previously (Lin Z P et al., 2014, Molecular Cancer Res, 12:381-393). […] Cells were then trypsinized, stained with 7-AAD, and analyzed for the percentage of GFP-positive and […] cells by flow cytometry using an LSR II flow cytometer (BD Biosciences) and FlowJo software (Tree Star; Ashland, OR). […]

[2] = cited from earlier work
[3] = system: DNA synthesis; settings: cited from earlier work

Question: Which IC50 [1] does the source give for C=CCn1c(SCc2cccc(Cl)c2)nnc1C1CCN(Cc2nc3ccccc3s2)CC1 [DB4, 2-[(4-{4-allyl-5-[(3-chlorobenzyl)thio]-4H-1,2,4-triazol-3-yl}-1-piperidinyl)methyl]-1,3-benzothiazole] here?
Answer: Its IC50 is 5.4 µM.

Question: For NC(=S)NN=Cc1ncccc1N [triapine, 3-aminopyridine-2-carboxaldehyde-thiosemicarbazone, reference compound], which half-life in plasma [2] is on record?
Answer: The half-life in plasma was “about 2 hr”.

Question: What about the “time to halt DNA synthesis” value [3] of the same compound?
Answer: The value was no more than 1 h.
